This note sets out measurements from ChEMBL document CHEMBL2010654, “Novel isoxazole polycyclic aromatic hydrocarbons as DNA-intercalating agents” (Eur J Med Chem, 2012).

Each structure is given as a SMILES string. Calls of active or inactive are those of the source. No cut-off for these calls is given here. *1 amine or outer side, *2 acyl side, *3 side chain or, on linkers, in order; H or OH if unused. Where a SMILES comes first, the peptide text is derived from it. Bridges are numbered along the chain shown (N, C = ends). Roman numbers before positions name the chains, in order. [ ]: non-standard residue; d: D form. Actinocin(1to9) = Cc1c2oc3c(C)ccc(C(=O)[*:2])c3nc-2c(C(=O)[*:1])c(N)c1=O; NMeV = CN[C@H](C(=O)O)C(C)C; Sar = CNCC(=O)O

One experiment has as its system U-937. Put plainly: Cytotoxicity against human U937 cells after 20 hrs by MTS assay. In kind it is functional, cell-based. The following applies: U-937, 20 h. (Tetrazolium assays rely on reduction of a dye to a coloured formazan, in cell work by metabolically active cells.)
The next experiment has as its system MOLT-3. Put plainly: Cytotoxicity against human MOLT3 cells after 20 hrs by MTS assay. The format is functional, cell-based. The following applies: MOLT-3, 20 h.
For experiment [1], the system named is A549. Put plainly: Cytotoxicity against human A549 cells after 20 hrs by SRB assay. The conditions noted are these: A549, 20 h. In kind it is functional, cell-based. (The SRB assay estimates cell density from bound dye.)
The test system of a further experiment is HeLa. The experiment is described as follows: Cytotoxicity against human HeLa cells after 20 hrs by MTS assay. In kind it is functional, cell-based.
The subject of another experiment is Vero. Put plainly: Cytotoxicity against african green monkey Vero cells after 20 hrs by MTS assay. In kind it is cell-based. The following applies: Chlorocebus sabaeus.
A further experiment deals with THP-1. Put plainly: Cytotoxicity against human THP1 cells after 20 hrs by MTS assay. The conditions noted are these: THP-1, 20 h. In kind it is functional, cell-based.
For experiment [2], the system named is Nucleic Acid. The experiment is described as follows: Binding affinity to polyd(GC)2 DNA by UV titration analysis. In kind it is nucleic-acid assay.
The subject of experiment [3] is Nucleic Acid. Put plainly: Binding affinity to Escherichia coli supercoiled phiX174 RF1 DNA assessed as DNA unwinding in presence of topoisomerase 1 after 30 mins by agarose gel electrophoresis. In kind it is nucleic-acid assay.
For experiment [4], the system named is Nucleic Acid. Put plainly: Binding affinity to poly-d(AT)2 DNA by UV titration analysis. The format is nucleic-acid assay.
Experiment [5] deals with Nucleic Acid. Put plainly: Binding affinity to calf thymus DNA by UV titration analysis. The format is nucleic-acid assay. The following applies: Bos taurus.
Experiment [6] relates to A549. The experiment is described as follows: Cytotoxicity against human A549 cells assessed as reduction of cell number at 0.5 ug/ml after 8 hrs relative to control. In kind it is functional. Also noted: scale not given: the % may be the effect or the level left.

Take `CN(C)C(=O)[C@H]1C[C@H](c2cc3ccccc3c3ccccc23)N(C)O1`: the IC50 (in general, the concentration that gives 50% inhibition) was 98 µM with U-937; 105 µM in the experiment with MOLT-3; 68 µM in the experiment on A549 [1]; 86 µM with HeLa; 160 µM in the experiment on Vero; 95 µM in the experiment on THP-1.
Take `CN(C)C(=O)C1CC(c2cc3ccccc3c3ccccc23)=NO1` (configuration not stated): the IC50 is above 500 µM in the experiment on U-937; above 500 µM in the experiment with MOLT-3; 435 µM in the experiment with A549 [1]; 401 µM in the experiment on HeLa; above 500 µM in the experiment with Vero; above 500 µM in the experiment with THP-1.
For the molecule `CN(C)C(=O)C1CC(c2ccc3ccc4cccc5ccc2c3c45)=NO1` (configuration not stated), the IC50 with U-937 stood at 194 µM; with MOLT-3, 65 µM; in the experiment on A549 [1], 49 µM; in the experiment on HeLa, 69 µM; with Vero, 160 µM; with THP-1, 69 µM.
As for `CN(C)C(=O)c1cc(-c2cc3ccccc3c3ccccc23)no1`, the IC50 was above 500 µM in the experiment on U-937; 420 µM with MOLT-3; 335 µM in the experiment with A549 [1]; 290 µM in the experiment on HeLa; above 500 µM in the experiment with Vero; 403 µM in the experiment on THP-1.
On to `CN(C)C(=O)c1cc(-c2ccc3ccc4cccc5ccc2c3c45)no1`, for which the IC50 in the experiment with U-937 came out at 202 µM; in the experiment on MOLT-3, 73 µM; in the experiment with A549 [1], 60 µM; with HeLa, 71 µM; in the experiment on Vero it was 165 µM; in the experiment with THP-1 it was 78 µM.
As for `CN(C)C(=O)[C@@H]1CON(C)[C@H]1c1ccc2ccc3cccc4ccc1c2c34` (racemic), the IC50 with U-937 was determined as 185 µM; in the experiment with MOLT-3, 59 µM; in the experiment with A549 [1] it was 44 µM; in the experiment with HeLa, 65 µM; in the experiment on Vero, 143 µM; in the experiment on THP-1 it was 61 µM.
Consider `CN(C)C(=O)[C@H]1CON(Cc2ccccc2)[C@H]1c1ccc2ccc3cccc4ccc1c2c34` (racemic), for which the IC50 amounted to 102 µM in the experiment on U-937; 100 µM with MOLT-3; 63 µM in the experiment with A549 [1]; 79 µM in the experiment with HeLa; 151 µM with Vero; 93 µM in the experiment with THP-1.
Regarding `CN(C)C(=O)[C@@H]1C[C@H](c2ccc3ccc4cccc5ccc2c3c45)N(C)O1` (racemic), the IC50 in the experiment on U-937 stood at 199 µM; with MOLT-3 it was 69 µM; with A549 [1] it was 55 µM; in the experiment with HeLa, 75 µM; in the experiment with Vero, 163 µM; in the experiment with THP-1 it was 75 µM.
Regarding `CN(C)C(=O)[C@H]1C[C@H](c2ccc3ccc4cccc5ccc2c3c45)N(Cc2ccccc2)O1` (racemic), the Kb was 0.3 ×10⁵ /M in the experiment with Nucleic Acid [2], 1.6 ×10⁵ /M in the experiment with Nucleic Acid [4] and 1.7 ×10⁵ /M with Nucleic Acid [5]. The IC50 is 37 µM in the experiment on U-937; 6 µM in the experiment on MOLT-3; 4 µM in the experiment with A549 [1]; 5 µM in the experiment with HeLa; 42 µM in the experiment on Vero; 6 µM with THP-1. The result in the experiment on Nucleic Acid [3] was Active.
In the case of `CN(C)C(=O)[C@H]1C[C@H](c2ccc3ccc4cccc5ccc2c3c45)N(C)O1` (racemic), the half-maximal inhibitory concentration (IC50) in the experiment with U-937 amounted to 165 µM; in the experiment with MOLT-3, 52 µM; with A549 [1], 41 µM; in the experiment with HeLa, 63 µM; in the experiment on Vero, 141 µM; with THP-1, 60 µM.
With `CN(C)C(=O)[C@H]1C[C@H](c2cc3ccccc3c3ccccc23)N(Cc2ccccc2)O1` (racemic), the concentration for half-maximal inhibition (IC50) came to 100 µM in the experiment with U-937; 15 µM with MOLT-3; 10 µM in the experiment with A549 [1]; 14 µM with HeLa; 115 µM with Vero; 17 µM in the experiment with THP-1.
`CN1O[C@H](CO)C[C@@H]1c1ccc2ccc3cccc4ccc1c2c34` (relative stereo): the Kb in the experiment with Nucleic Acid [5] is 6.8 ×10³ /M.
Regarding `Cc1c2oc3c(C)ccc(C(=O)N[C@@H]4C(=O)N[C@H](C(C)C)C(=O)N5CCC[C@H]5C(=O)N(C)CC(=O)N(C)[C@@H](C(C)C)C(=O)O[C@@H]4C)c3nc-2c(C(=O)N[C@@H]2C(=O)N[C@H](C(C)C)C(=O)N3CCC[C@H]3C(=O)N(C)CC(=O)N(C)[C@@H](C(C)C)C(=O)O[C@@H]2C)c(N)c1=O` [DACTINOMYCIN] (I: T[dV]P[Sar][NMeV] / II: T[dV]P[Sar][NMeV]; ester I:1-I:C, II:1-II:C; linker I:N-II:N via Actinocin(1to9)), in the experiment with A549 [6], the Activity is reported as 40%.
